This is an account of results in patent US20230115534A1 (ARKUDA THERAPEUTICS, priority 2019, published 2023).

Structures can show the parent of a compound that is named as a salt.

The subject of this experiment is progranulin (PGRN). Nature of the experiment: progranulin induction cellular assay (PGRN assay), ELISA-based readout. Particulars: PGRN assay as described: mouse primary microglia, primary cortical neurons and BV-2 cell lines; secreted mouse PGRN in medium by ELISA; cell type for Table B not specified. As for the experimental part: Cellular Assays: To measure the efficacy of compounds, a progranulin induction cellular assay in mouse primary microglia (pMG), primary cortical neurons, and BV-2 cell lines is used. BV-2 cells are split the day before plating into a 96 well plate format at approximately 80%. Cells should be plated the day before and allowed for 1 hour attachment period and for 16 hour incubation. Levels of progranulin secreted into the cell culture medium or retained in the cell lysate can be quantified using an ELISA-based readout and measurement of secreted mouse PGRN in the medium was assessed by the methodology published by Ghidoni et al. 2012. Standard ELISA kits to measure PGRN are available from vendors such as Adipogen, R&D, and Biovendor.
Table B below presents the results of a PGRN assay as described above.
In general terms: ELISA stands for enzyme-linked immunosorbent assay.
Turning to `C[C@]1(NC(=O)N2CCc3ccccc3[C@@H]2c2ccc(F)cc2)C[C@@H](N)C1` [Compound 4054, (S)—N-((cis)-3-amino-1-methylcyclobutyl)-1-(4-fluorophenyl)-3,4-dihydroisoquinoline-2(1H)-carboxamide], the EC50 – broadly, the concentration giving half of the maximal effect – turned out to be 120 nM. This lies in the sub-micromolar range.
The same measure for `CCN[C@H]1C[C@H](OC(=O)N2CCc3ccccc3[C@@H]2c2ccc(F)cc2)C1` [Compound 4130]: 740 nM; for `O=C(OC12CC(NCC(F)(F)F)(C1)C2)N1CCc2ccccc2[C@@H]1c1ccc(F)cc1` [Compound 4014, 3-((2,2,2-trifluoroethyl)amino)bicyclo[1.1.1]pentan-1-yl (S)-1-(4-fluorophenyl)-3,4-dihydroisoquinoline-2(1H)-carboxylate]: greater than 10000 nM.
The same measure for `O=C(OC12CC(N3CCOCC3)(C1)C2)N1CCc2ccccc2[C@@H]1c1ccc(F)cc1` [Compound 4049, 3-Morpholinobicyclo[1.1.1]pentan-1-yl (S)-1-(4-fluorophenyl)-3,4-dihydroisoquinoline-2(1H)-carboxylate hydrochloride]: greater than 10000 nM.
For `CNC1(COC(=O)N2CCc3ccccc3[C@@H]2c2ccc(F)cc2)CC1` [Compound 4051, (1-(Methylamino)cyclopropyl)methyl (S)-1-(4-fluorophenyl)-3,4-dihydroisoquinoline-2(1H)-carboxylate hydrochloride], it took 460 nM to reach a half-maximal effect (EC50).
`NC12CC(NC(=O)N3CCc4ccccc4C3c3ccc(F)cc3F)(C1)C2` (single isomer, unassigned) [Compound 4137, N-(3-aminobicyclo[1.1.1]pentan-1-yl)-1-(2,4-difluorophenyl)-3,4-dihydroisoquinoline-2(1H)-carboxamide] displayed an EC50 of 91 nM.
The same measure for `CC(=O)NC12CC(NC(=O)N3CCc4ccccc4[C@@H]3c3ccc(F)cc3)(C1)C2` [Compound 4016, (S)—N-(3-acetamidobicyclo[1.1.1]pentan-1-yl)-1-(4-fluorophenyl)-3,4-dihydroisoquinoline-2(1H)-carboxamide]: greater than 10000 nM; for `O=C(NC12CC(N3CCCC3=O)(C1)C2)N1CCc2ccccc2[C@@H]1c1ccc(F)cc1` [Compound 4024, (S)-1-(4-fluorophenyl)-N-(3-(2-oxopyrrolidin-1-yl)bicyclo[1.1.1]pentan-1-yl)-3,4-dihydroisoquinoline-2(1H)-carboxamide]: greater than 10000 nM; for `CN[C@H]1C[C@@H](NC(=O)N2CCc3ccccc3[C@@H]2c2ccc(F)cc2)C1` [Compound 4066]: 610 nM.
With `CS(=O)(=O)CCNC12CC(N(CCS(C)(=O)=O)C(=O)N3CCc4ccccc4[C@@H]3c3ccc(F)cc3)(C1)C2` [Compound 4008, (S)-1-(4-fluorophenyl)-N-(2-(methylsulfonyl)ethyl)-N-(3-((2-(methylsulfonyl)ethyl)amino)bicyclo[1.1.1]pentan-1-yl)-3,4-dihydroisoquinoline-2(1H)-carboxamide] the figure was greater than 10000 nM.
Compound `C#CCNC12CC(NC(=O)N3CCc4ccccc4[C@@H]3c3ccc(F)cc3)(C1)C2` [Compound 4005, (S)-1-(4-fluorophenyl)-N-(3-(prop-2-yn-1-ylamino)bicyclo[1.1.1]pentan-1-yl)-3,4-dihydroisoquinoline-2(1H)-carboxamide 2,2,2-trifluoroacetate] showed a concentration giving a half-maximal response (EC50) greater than 10000 nM.
The compound `O=C(NC12CC(NS(=O)(=O)C(F)(F)F)(C1)C2)N1CCc2ccccc2[C@@H]1c1ccc(F)cc1` [Compound 4020, (S)-1-(4-fluorophenyl)-N-(3-((trifluoromethyl)sulfonamido)bicyclo[1.1.1]pentan-1-yl)-3,4-dihydroisoquinoline-2(1H)-carboxamide] registered an EC50 of 3290 nM.
In turn, `N[C@H]1C[C@H](C(=O)N2CCc3ccccc3[C@@H]2c2ccc(F)cc2)C1` [Compound 4147, (trans-3-aminocyclobutyl)((S)-1-(4-fluorophenyl)-3,4-dihydroisoquinolin-2(1H)-yl)methanone] yielded an EC50 of 99 nM. This EC50 is about 33-fold lower than that of the compound before.
With `NC12CC(NC(=O)N3CCc4ccccc4[C@@H]3c3ccc(F)cc3)(C1)C2` [Compound 4002, (S)—N-(3-aminobicyclo[1.1.1]pentan-1-yl)-1-(4-fluorophenyl)-3,4-dihydroisoquinoline-2(1H)-carboxamide] the figure was 266 nM; with `NC12CC(CC(=O)N3CCc4ccccc4C3c3ccc(F)cc3)(C1)C2` [Compound 4056, (S)-2-(3-aminobicyclo[1.1.1]pentan-1-yl)-1-(1-(4-fluorophenyl)-3,4-dihydroisoquinolin-2(1H)-yl)ethan-1-one], 1440 nM; with `C[C@]1(NC(=O)N2CCc3ccccc3[C@@H]2c2ccc(F)cc2)C[C@H](N)C1` [Compound 4053, (S)—N-((trans)-3-amino-1-methylcyclobutyl)-1-(4-fluorophenyl)-3,4-dihydroisoquinoline-2(1H)-carboxamide], 31 nM.
With `CC(=O)NC12CC(OC(=O)N3CCc4ccccc4[C@@H]3c3ccc(F)cc3)(C1)C2` [Compound 4015, 3-Acetamidobicyclo[1.1.1]pentan-1-yl (S)-1-(4-fluorophenyl)-3,4-dihydroisoquinoline-2(1H)-carboxylate] the figure was greater than 10000 nM.
With `N[C@H]1CC[C@H]1OC(=O)N1CCc2ccccc2[C@@H]1c1ccc(F)cc1` (single isomer, unassigned) [Compound 4037] the figure was greater than 10000 nM; with `NC1(COC(=O)N2CCc3ccccc3[C@@H]2c2ccc(F)cc2)CC1` [Compound 4033, (1-Aminocyclopropyl)methyl (S)-1-(4-fluorophenyl)-3,4-dihydroisoquinoline-2(1H)-carboxylate hydrochloride], 320 nM.
In turn, `CS(=O)(=O)CCNC12CC(OC(=O)N3CCc4ccccc4[C@@H]3c3ccc(F)cc3)(C1)C2` [Compound 4027, 3-((2-(Methylsulfonyl)ethyl)amino)bicyclo[1.1.1]pentan-1-yl (S)-1-(4-fluorophenyl)-3,4-dihydroisoquinoline-2(1H)-carboxylate hydrochloride] had a concentration for a half-maximal effect (EC50) of 1060 nM.
The same measure for `CN[C@H]1C[C@H](NC(=O)N2CCc3ccccc3[C@@H]2c2ccc(F)cc2)C1` [Compound 4043, (S)-1-(4-fluorophenyl)-N-(trans-3-(methylamino)cyclobutyl)-3,4-dihydroisoquinoline-2(1H)-carboxamide hydrochloride]: 900 nM; for `O=C(O[C@H]1C[C@H](NCCO)C1)N1CCc2ccccc2[C@@H]1c1ccc(F)cc1` [Compound 4146, trans-3-((2-hydroxyethyl)amino)cyclobutyl (S)-1-(4-fluorophenyl)-3,4-dihydroisoquinoline-2(1H)-carboxylate]: 89 nM.
The same measure for `N[C@H]1C[C@@H](C(=O)N2CCc3ccccc3[C@@H]2c2ccc(F)cc2)C1` [Compound 4148, (cis-3-aminocyclobutyl)((S)-1-(4-fluorophenyl)-3,4-dihydroisoquinolin-2(1H)-yl)methanone]: 92 nM; for `NC[C@H]1C[C@H](OC(=O)N2CCc3ccccc3[C@@H]2c2ccc(F)cc2)C1` [Compound 4031, Trans-3-(aminomethyl)cyclobutyl (S)-1-(4-fluorophenyl)-3,4-dihydroisoquinoline-2(1H)-carboxylate]: greater than 10000 nM; for `N[C@]1(CO)C[C@@H](C(=O)N2CCc3ccccc3[C@@H]2c2ccc(F)cc2)C1` [Compound 4152, (trans-3-amino-3-(hydroxymethyl)cyclobutyl)((S)-1-(4-fluorophenyl)-3,4-dihydroisoquinolin-2(1H)-yl)methanone]: 245 nM.
The same measure for `O=C(NC12CC(NCC(F)(F)F)(C1)C2)N1CCc2ccccc2[C@@H]1c1ccc(F)cc1` [Compound 4023, (S)-1-(4-fluorophenyl)-N-(3-((2,2,2-trifluoroethyl)amino)bicyclo[1.1.1]pentan-1-yl)-3,4-dihydroisoquinoline-2(1H)-carboxamide]: greater than 10000 nM; for `N[C@H]1C[C@H](OC(=O)N2CCc3ccccc3[C@@H]2c2ccc(F)cc2)C1` [Compound 4036, Trans-3-aminocyclobutyl (S)-1-(4-fluorophenyl)-3,4-dihydroisoquinoline-2(1H)-carboxylate hydrochloride]: 1120 nM.
`NC[C@H]1C[C@@H](NC(=O)N2CCc3ccccc3[C@@H]2c2ccc(F)cc2)C1` [Compound 4032, (S)—N-(cis-3-(aminomethyl)cyclobutyl)-1-(4-fluorophenyl)-3,4-dihydroisoquinoline-2(1H)-carboxamide] had an EC50 greater than 10000 nM.
With `CN[C@H]1C[C@@H](NC(=O)N2CCc3ccccc3[C@@H]2c2ccc(F)cc2)C1` [Compound 4045, (S)-1-(4-fluorophenyl)-N-(cis-3-(methylamino)cyclobutyl)-3,4-dihydroisoquinoline-2(1H)-carboxamide hydrochloride] the figure was 600 nM.
The same measure for `N[C@H]1CCC1OC(=O)N1CCc2ccccc2[C@@H]1c1ccc(F)cc1` (single isomer, unassigned) [Compound 4040, hydrochloride]: 2330 nM.
In turn, `N[C@@H]1CC[C@H]1OC(=O)N1CCc2ccccc2[C@@H]1c1ccc(F)cc1` (single isomer, unassigned) [Compound 4039, hydrochloride] gave a concentration giving a half-maximal response (EC50) of 1210 nM.
The same measure for `O=C(NC12CC(N3CCCC3)(C1)C2)N1CCc2ccccc2[C@@H]1c1ccc(F)cc1` [Compound 4012, (S)-1-(4-fluorophenyl)-N-(3-(pyrrolidin-1-yl)bicyclo[1.1.1]pentan-1-yl)-3,4-dihydroisoquinoline-2(1H)-carboxamide]: 7810 nM.
